This passage reports refractive index results from the NIST ThermoML archive (doi:10.1016/j.jct.2019.03.001).

A short description of this series: refractive index (Na D-line) (dimensionless). To be noted: 293.15 K; 101.33 kPa; Liquid; Standard Abbe refractometry.

Each structure is given as a SMILES string. ± gives the expanded uncertainty stated by the source.

As for `CCCCO` [butan-1-ol], the refractive index was 1.3993 ± 0.0007.
